Source: US11066711B2, “Biomarkers for predicting Clostridium difficile infection treatment outcome” (Mayo Foundation for Medical Education and Research, priority 2015, dated 2021)

Test system: Clostridium difficile infection
Assay: Primary CDI treatment outcome in patients with a first CDI episode (clinical cohort)
Type: in vivo, human
Conditions: 88 patients with first CDI episode; metronidazole versus vancomycin (Table 1)
Description: Patients with a first Clostridium difficile infection (CDI) episode were recruited. Consecutive patient stool samples that led to CDI diagnosis were collected.
Clinical data including demographics, hospitalization, concomitant medications, severity, laboratory parameters, prior and concomitant antibiotic use, initial CDI treatment, treatment response and recurrent CDI were obtained by a review of the electronic medical record.
Treatment failure was defined as non-response to treatment after 5 days of metronidazole treatment or 4 days of vancomycin therapy (Khanna et al., 2012 Am J Gastroenterol 107:89-95; Cohen et al., 2010 Infect Control Hosp Epidemiol 31:431-55; and Surawicz et al., 2013 Am J Gastroenterol 108:478-98). Recurrent CDI was defined as recurrence of diarrhea after complete resolution of symptoms at any time during the treatment or within 56 days of onset with a positive CDI test (Cohen et al., 2010 Infect Control Hosp Epidemiol 31:431-55).
Stool samples were collected from 88 patients (median age 52.7 years, interquartile range 36.9-65.1; 60.2% female) and clinical outcomes were recorded prospectively. The rate of primary non-response following recommended treatment was 12.5%, and was similar between metronidazole and vancomycin (Table 1).

SMILES	rate of primary non-response, comparison between drugs
Cc1ncc([N+](=O)[O-])n1CCO [metronidazole]	similar
CN[C@H](CC(C)C)C(=O)N[C@H]1C(=O)N[C@@H](CC(N)=O)C(=O)N[C@H]2C(=O)N[C@H]3C(=O)N[C@H](C(=O)N[C@H](C(=O)O)c4cc(O)cc(O)c4-c4cc3ccc4O)[C@H](O)c3ccc(c(Cl)c3)Oc3cc2cc(c3O[C@@H]2O[C@H](CO)[C@@H](O)[C@H](O)[C@H]2O[C@H]2C[C@](C)(N)[C@H](O)[C@H](C)O2)Oc2ccc(cc2Cl)[C@H]1O [vancomycin]	similar
